≈ marks a conversion by molar mass, not a printed value. One block for each compound: values may come before it.
How the values were obtained:
[1] = biological target: ABL (Homo sapiens, UniProt P00519); test: Off-chip mobility-shift kinase assay (Caliper LABCHIP), ABL; settings: for ABL AVG % Activity at 1.0E−09: concentration 1.0E−09; for ABL AVG % Activity at 1.0E−10: concentration 1.0E−10; for ABL AVG % Activity at 1.0E−11: concentration 1.0E−11; for ABL AVG % Activity at 3.0E−09: concentration 3.0E−09; for ABL AVG % Activity at 3.0E−10: concentration 3.0E−10; for ABL AVG % Activity at 3.0E−11: concentration 3.0E−11; for ABL AVG % Activity at 1.0E−06: concentration 1.0E−06; for ABL AVG % Activity at 1.0E−07: concentration 1.0E−07; for ABL AVG % Activity at 1.0E−08: concentration 1.0E−08; for ABL AVG % Activity at 3.0E−06: concentration 3.0E−06; for ABL AVG % Activity at 3.0E−07: concentration 3.0E−07; for ABL AVG % Activity at 3.0E−08: concentration 3.0E−08
Chain of ABL (P00519 whole entry): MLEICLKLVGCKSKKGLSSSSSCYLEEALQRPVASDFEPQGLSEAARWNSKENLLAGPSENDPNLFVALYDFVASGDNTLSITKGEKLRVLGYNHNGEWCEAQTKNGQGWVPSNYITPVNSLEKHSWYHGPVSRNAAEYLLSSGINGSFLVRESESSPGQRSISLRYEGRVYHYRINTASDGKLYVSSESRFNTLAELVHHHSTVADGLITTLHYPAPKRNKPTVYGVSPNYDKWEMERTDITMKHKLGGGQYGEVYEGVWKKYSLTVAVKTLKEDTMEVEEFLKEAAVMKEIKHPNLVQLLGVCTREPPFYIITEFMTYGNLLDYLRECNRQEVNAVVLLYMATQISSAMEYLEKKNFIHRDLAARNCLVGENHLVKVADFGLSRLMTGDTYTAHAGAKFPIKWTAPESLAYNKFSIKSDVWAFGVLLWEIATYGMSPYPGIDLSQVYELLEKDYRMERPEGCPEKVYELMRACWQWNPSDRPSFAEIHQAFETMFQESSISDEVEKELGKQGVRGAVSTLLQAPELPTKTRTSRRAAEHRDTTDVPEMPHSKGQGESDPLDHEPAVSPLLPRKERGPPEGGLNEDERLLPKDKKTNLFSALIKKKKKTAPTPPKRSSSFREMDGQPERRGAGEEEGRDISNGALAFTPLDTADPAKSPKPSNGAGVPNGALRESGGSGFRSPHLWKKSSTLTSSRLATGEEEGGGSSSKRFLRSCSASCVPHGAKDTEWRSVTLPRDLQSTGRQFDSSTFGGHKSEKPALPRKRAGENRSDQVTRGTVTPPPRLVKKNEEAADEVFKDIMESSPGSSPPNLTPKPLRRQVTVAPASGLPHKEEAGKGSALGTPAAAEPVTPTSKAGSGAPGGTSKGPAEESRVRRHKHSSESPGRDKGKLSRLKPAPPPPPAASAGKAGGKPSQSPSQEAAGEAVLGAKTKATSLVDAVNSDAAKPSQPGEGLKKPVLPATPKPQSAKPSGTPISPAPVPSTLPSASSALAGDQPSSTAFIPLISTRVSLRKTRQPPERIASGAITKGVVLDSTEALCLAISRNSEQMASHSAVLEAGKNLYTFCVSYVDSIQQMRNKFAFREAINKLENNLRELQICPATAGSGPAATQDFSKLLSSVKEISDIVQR

[2] = Thermodynamic solubility; type: physicochemical; settings: aqueous buffer, thermodynamic from solid; phosphate buffered saline, pH 7.4; ambient temperature overnight
Experimental: Test compound (2.5 mg of solid; n=1) is weighed in a clear glass vial and buffer (0.5 mL) is added (phosphate buffered saline, pH 7.4). The solution is agitated at ambient temperature overnight using a vial roller system. […] Duplicate aliquots (50 μL) are sampled from the filtrate and diluted with one volume of 0.1 N hydrochloric acid and methanol (1:1 v/v) before analysis by HPLC-UV. […] The concentration of test compound in the filtrate is quantified relative to the concentration standard.
Analysis is performed using a gradient HPLC-UV system with a total cycle time of six minutes.

[3] = Caco-2 permeability (bi-directional; pH 7.4/pH 7.4); type: in vitro ADME; settings: human; for Papp A→B at 120 min, 10 μM: Caco-2, pH 7.4, read-out: Permeability (cm^2/s × 10^6); for efflux ratio at 120 min, 10 μM: Caco-2, ratio of B-A and A-B permeabilities
Experimental: Caco-2 cells are used as an in vitro model of the human intestinal epithelium and permit assessment of the intestinal permeability of potential drugs. Test compound is added to either the apical or basolateral side of a confluent monolayer of Caco-2 cells and permeability is measured by monitoring the appearance of the test compound on the opposite side of the membrane using LC-MS/MS. Apparent permeability (Papp) coefficients, efflux ratio for the test compound and recovery values were determined.
To measure the permeability of test compound in the apical to basolateral (A-B) and basolateral to apical (B-A) direction across Caco-2 cells.
Caco-2 cells obtained from the ATCC are used between passage numbers 40-60. Cells are seeded on to Millipore Multiscreen Caco-2 plates at 1×10^5 cells/cm^2. They are cultured for 20 days in DMEM and media is changed every two or three days. On day 20 the permeability study is performed.
On day 20, the monolayers are prepared by rinsing both basolateral and apical surfaces twice with HBSS at 37° C. Cells are then incubated with HBSS in both apical and basolateral compartments for 40 min to stabilize physiological parameters. HBSS is then removed from the apical compartment and replaced with test compound dosing solutions. […] The fluorescent integrity marker lucifer yellow is also included in the dosing solution. Analytical standards are made from dosing solutions. The apical compartment inserts are then placed into ‘companion’ plates containing fresh HBSS. For basolateral to apical (B-A) permeability determination the experiment is initiated by replacing buffer in the inserts then placing them in companion plates containing dosing solutions. At 120 minutes the companion plate is removed and apical and basolateral samples diluted for analysis by LC-MS/MS. Test compound permeability was assessed in duplicate. On each plate, compounds of known permeability characteristics were run as controls.
Test and control compounds were quantified by LC-MS/MS cassette analysis using a 5-point calibration with appropriate dilution of the samples. Cyprotex generic analytical conditions were used. The starting concentration (C0) and experimental recovery were calculated from both apical and basolateral compartment concentrations.
The integrity of the monolayers throughout the experiment was checked by monitoring lucifer yellow permeation using fluorimetric analysis. Lucifer yellow permeation is low if monolayers have not been damaged. […] If lucifer yellow Papp values are above QC limits in both replicate wells for a test compound, the compound was re-tested.
Data Analysis: The permeability coefficient for each compound (Papp) is calculated from the following equation: […]
wherein dQ/dt is the rate of permeation of the drug across the cells, C0 is the donor compartment concentration at time zero and A is the area of the cell monolayer. C0 is obtained from analysis of donor and receiver compartments at the end of the incubation period. It is assumed that all of the test compound measured after 120 minutes incubation was initially present in the donor compartment at 0 minutes. An efflux ratio (ER) is derived as follows:
Talinolol (a known P-gp substrate) is also included as a control compound to assess whether functional P-gp is present in the Caco-2 cell monolayer.

[4] = biological target: PDGFRβ (Homo sapiens, UniProt P09619); test: Off-chip mobility-shift kinase assay (Caliper LABCHIP), PDGFR; settings: for PDGFR AVG % Activity at 1.0E−06: concentration 1.0E−06; for PDGFR AVG % Activity at 1.0E−07: concentration 1.0E−07; for PDGFR AVG % Activity at 1.0E−08: concentration 1.0E−08; for PDGFR AVG % Activity at 1.0E−09: concentration 1.0E−09; for PDGFR AVG % Activity at 1.0E−10: concentration 1.0E−10; for PDGFR AVG % Activity at 3.0E−06: concentration 3.0E−06; for PDGFR AVG % Activity at 3.0E−07: concentration 3.0E−07; for PDGFR AVG % Activity at 3.0E−08: concentration 3.0E−08; for PDGFR AVG % Activity at 3.0E−09: concentration 3.0E−09; for PDGFR AVG % Activity at 3.0E−10: concentration 3.0E−10
Chain of PDGFRβ (P09619 33-1106): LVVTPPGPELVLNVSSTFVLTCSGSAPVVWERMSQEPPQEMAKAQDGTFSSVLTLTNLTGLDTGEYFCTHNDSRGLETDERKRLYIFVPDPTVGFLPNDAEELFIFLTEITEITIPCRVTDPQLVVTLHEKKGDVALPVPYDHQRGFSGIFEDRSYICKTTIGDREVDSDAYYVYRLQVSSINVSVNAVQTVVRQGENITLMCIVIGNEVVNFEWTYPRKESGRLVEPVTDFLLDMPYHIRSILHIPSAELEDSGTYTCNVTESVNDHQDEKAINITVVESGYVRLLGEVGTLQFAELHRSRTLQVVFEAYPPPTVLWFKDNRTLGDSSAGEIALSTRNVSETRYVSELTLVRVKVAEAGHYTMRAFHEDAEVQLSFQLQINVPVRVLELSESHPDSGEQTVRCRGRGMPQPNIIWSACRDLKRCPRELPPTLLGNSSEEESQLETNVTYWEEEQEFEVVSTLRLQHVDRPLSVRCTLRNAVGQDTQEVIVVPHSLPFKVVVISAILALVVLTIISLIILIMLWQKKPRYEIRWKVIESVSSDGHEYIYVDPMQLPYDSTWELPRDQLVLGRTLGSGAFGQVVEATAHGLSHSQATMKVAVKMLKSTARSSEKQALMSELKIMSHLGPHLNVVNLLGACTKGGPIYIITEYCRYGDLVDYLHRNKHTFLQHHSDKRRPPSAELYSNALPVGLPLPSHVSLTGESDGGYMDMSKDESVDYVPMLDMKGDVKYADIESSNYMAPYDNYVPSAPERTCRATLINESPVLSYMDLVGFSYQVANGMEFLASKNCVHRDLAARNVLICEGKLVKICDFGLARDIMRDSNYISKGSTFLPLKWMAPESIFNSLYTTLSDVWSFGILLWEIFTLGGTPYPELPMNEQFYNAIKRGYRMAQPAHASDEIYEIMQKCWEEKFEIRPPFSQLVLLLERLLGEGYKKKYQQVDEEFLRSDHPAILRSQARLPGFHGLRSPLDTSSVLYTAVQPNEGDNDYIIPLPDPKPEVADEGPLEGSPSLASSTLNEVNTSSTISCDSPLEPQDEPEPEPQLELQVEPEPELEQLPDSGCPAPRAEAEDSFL

[5] = biological target: cKIT (Homo sapiens, UniProt P10721); test: Off-chip mobility-shift kinase assay (Caliper LABCHIP), C-kit; settings: for C-kit AVG % Activity at 1.0E−05: concentration 1.0E−05; for C-kit AVG % Activity at 1.0E−06: concentration 1.0E−06; for C-kit AVG % Activity at 1.0E−07: concentration 1.0E−07; for C-kit AVG % Activity at 1.0E−08: concentration 1.0E−08; for C-kit AVG % Activity at 3.0E−05: concentration 3.0E−05; for C-kit AVG % Activity at 3.0E−06: concentration 3.0E−06; for C-kit AVG % Activity at 3.0E−07: concentration 3.0E−07; for C-kit AVG % Activity at 3.0E−08: concentration 3.0E−08; for C-kit AVG % Activity at 3.0E−09: concentration 3.0E−09
Chain of cKIT (P10721 26-976): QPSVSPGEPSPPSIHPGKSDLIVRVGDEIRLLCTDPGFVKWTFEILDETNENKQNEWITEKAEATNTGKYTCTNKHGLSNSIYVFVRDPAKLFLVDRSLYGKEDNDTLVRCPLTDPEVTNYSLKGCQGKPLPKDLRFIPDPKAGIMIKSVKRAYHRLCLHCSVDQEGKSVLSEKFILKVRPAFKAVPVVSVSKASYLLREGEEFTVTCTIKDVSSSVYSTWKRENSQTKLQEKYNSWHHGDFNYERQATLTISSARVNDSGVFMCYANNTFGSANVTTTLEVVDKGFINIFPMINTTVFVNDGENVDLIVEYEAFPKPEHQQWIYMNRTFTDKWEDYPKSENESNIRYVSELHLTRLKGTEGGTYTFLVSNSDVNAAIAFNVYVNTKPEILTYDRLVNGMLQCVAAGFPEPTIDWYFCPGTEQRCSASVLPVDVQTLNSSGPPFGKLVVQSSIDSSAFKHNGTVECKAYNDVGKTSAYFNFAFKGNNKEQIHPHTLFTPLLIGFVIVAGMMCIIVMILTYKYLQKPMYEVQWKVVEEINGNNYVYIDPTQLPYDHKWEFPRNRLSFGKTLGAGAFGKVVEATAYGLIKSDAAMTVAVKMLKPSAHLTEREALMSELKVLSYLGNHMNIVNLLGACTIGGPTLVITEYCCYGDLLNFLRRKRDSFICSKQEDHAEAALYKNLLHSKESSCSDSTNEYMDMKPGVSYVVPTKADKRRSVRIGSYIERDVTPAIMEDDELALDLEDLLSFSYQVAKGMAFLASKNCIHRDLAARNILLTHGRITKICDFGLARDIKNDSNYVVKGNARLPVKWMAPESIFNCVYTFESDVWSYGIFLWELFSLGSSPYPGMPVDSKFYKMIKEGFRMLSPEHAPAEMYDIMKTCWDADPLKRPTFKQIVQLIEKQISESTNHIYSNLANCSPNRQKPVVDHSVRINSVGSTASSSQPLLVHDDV

[6] = dasatinib-corresponding compounds
[7] = imatinib-corresponding compounds

Compound: COCCOCCOCCOCC(=O)NC(CC(C)C)C(=O)OCCN1CCN(c2cc(Nc3ncc(C(=O)Nc4c(C)cccc4Cl)s3)nc(C)n2)CC1 (centres unmarked) [mPEG3-Leu-Dasatinib]
- IC50 [1]: 0.43 nM
- ABL AVG % Activity at 1.0E−09 [1, 6]: 14%
- ABL AVG % Activity at 1.0E−10 [1, 6]: 85%
- ABL AVG % Activity at 1.0E−11 [1, 6]: 99%
- ABL AVG % Activity at 3.0E−09 [1, 6]: 1%
- ABL AVG % Activity at 3.0E−10 [1, 6]: 62%
- ABL AVG % Activity at 3.0E−11 [1, 6]: 97%

Compound: COCCOCCOCCOCC(=O)NC(C(=O)OCCN1CCN(c2cc(Nc3ncc(C(=O)Nc4c(C)cccc4Cl)s3)nc(C)n2)CC1)C(C)C (centres unmarked) [mPEG3-Val-Dasatinib]
- IC50 [1]: 0.37 nM
- ABL AVG % Activity at 1.0E−09 [1, 6]: 10%
- ABL AVG % Activity at 1.0E−10 [1, 6]: 85%
- ABL AVG % Activity at 1.0E−11 [1, 6]: 98%
- ABL AVG % Activity at 3.0E−09 [1, 6]: 0%
- ABL AVG % Activity at 3.0E−10 [1, 6]: 54%
- ABL AVG % Activity at 3.0E−11 [1, 6]: 95%

The next lines start with the values.

- solubility [2]: 3400 µg/mL (≈ 5.27 mM)
- Papp A→B at 120 min, 10 μM [3]: 0.05 ± 0.02 ×10⁻⁶ cm/s
- efflux ratio at 120 min, 10 μM [3]: 560
- IC50 [1]: ≥ 3000 nM
- ABL AVG % Activity at 1.0E−06 [1, 7]: 74%
- ABL AVG % Activity at 1.0E−07 [1, 7]: 86%
- ABL AVG % Activity at 1.0E−08 [1, 7]: 95%
- ABL AVG % Activity at 1.0E−09 [1, 7]: 97%
- ABL AVG % Activity at 1.0E−10 [1, 7]: 96%
- ABL AVG % Activity at 3.0E−06 [1, 7]: 66%
- ABL AVG % Activity at 3.0E−07 [1, 7]: 80%
- ABL AVG % Activity at 3.0E−08 [1, 7]: 92%
- ABL AVG % Activity at 3.0E−09 [1, 7]: 96%
- ABL AVG % Activity at 3.0E−10 [1, 7]: 96%
- IC50 [4]: 220 nM
- PDGFR AVG % Activity at 1.0E−06 [4]: 9%
- PDGFR AVG % Activity at 1.0E−07 [4]: 62%
- PDGFR AVG % Activity at 1.0E−08 [4]: 94%
- PDGFR AVG % Activity at 1.0E−09 [4]: 90%
- PDGFR AVG % Activity at 1.0E−10 [4]: 92%
- PDGFR AVG % Activity at 3.0E−06 [4]: 0%
- PDGFR AVG % Activity at 3.0E−07 [4]: 37%
- PDGFR AVG % Activity at 3.0E−08 [4]: 85%
- PDGFR AVG % Activity at 3.0E−09 [4]: 100%
- PDGFR AVG % Activity at 3.0E−10 [4]: 92%
- IC50 [5]: 440 nM
- C-kit AVG % Activity at 1.0E−05 [5]: 1%
- C-kit AVG % Activity at 1.0E−06 [5]: 28%
- C-kit AVG % Activity at 1.0E−07 [5]: 82%
- C-kit AVG % Activity at 1.0E−08 [5]: 92%
- C-kit AVG % Activity at 3.0E−05 [5]: 0%
- C-kit AVG % Activity at 3.0E−06 [5]: 9%
- C-kit AVG % Activity at 3.0E−07 [5]: 59%
- C-kit AVG % Activity at 3.0E−08 [5]: 91%
- C-kit AVG % Activity at 3.0E−09 [5]: 96%
Compound: COCCOCCOCCOCCOCCNCc1ccc(C(=O)Nc2ccc(C)c(Nc3nccc(-c4cccnc4)n3)c2)cc1 [mPEG5-N-Imatinib]

- solubility [2]: 3000 µg/mL (≈ 3.74 mM)
- Papp A→B at 120 min, 10 μM [3]: 0.3 ± 0.01 ×10⁻⁶ cm/s
- efflux ratio at 120 min, 10 μM [3]: 75.7
- IC50 [1]: ≥ 3000 nM
- ABL AVG % Activity at 1.0E−06 [1, 7]: 69%
- ABL AVG % Activity at 1.0E−07 [1, 7]: 83%
- ABL AVG % Activity at 1.0E−08 [1, 7]: 92%
- ABL AVG % Activity at 1.0E−09 [1, 7]: 96%
- ABL AVG % Activity at 1.0E−10 [1, 7]: 96%
- ABL AVG % Activity at 3.0E−06 [1, 7]: 52%
- ABL AVG % Activity at 3.0E−07 [1, 7]: 78%
- ABL AVG % Activity at 3.0E−08 [1, 7]: 88%
- ABL AVG % Activity at 3.0E−09 [1, 7]: 96%
- ABL AVG % Activity at 3.0E−10 [1, 7]: 97%
- IC50 [4]: 310 nM
- PDGFR AVG % Activity at 1.0E−06 [4]: 18%
- PDGFR AVG % Activity at 1.0E−07 [4]: 76%
- PDGFR AVG % Activity at 1.0E−08 [4]: 91%
- PDGFR AVG % Activity at 1.0E−09 [4]: 98%
- PDGFR AVG % Activity at 1.0E−10 [4]: 95%
- PDGFR AVG % Activity at 3.0E−06 [4]: 0%
- PDGFR AVG % Activity at 3.0E−07 [4]: 43%
- PDGFR AVG % Activity at 3.0E−08 [4]: 91%
- PDGFR AVG % Activity at 3.0E−09 [4]: 93%
- PDGFR AVG % Activity at 3.0E−10 [4]: 100%
- IC50 [5]: 2500 nM
- C-kit AVG % Activity at 1.0E−05 [5]: 16%
- C-kit AVG % Activity at 1.0E−06 [5]: 69%
- C-kit AVG % Activity at 1.0E−07 [5]: 91%
- C-kit AVG % Activity at 1.0E−08 [5]: 95%
- C-kit AVG % Activity at 3.0E−05 [5]: 4%
- C-kit AVG % Activity at 3.0E−06 [5]: 44%
- C-kit AVG % Activity at 3.0E−07 [5]: 84%
- C-kit AVG % Activity at 3.0E−08 [5]: 97%
- C-kit AVG % Activity at 3.0E−09 [5]: 95%
Compound: COCCOCCOCCOCCOCCOCCOCCN1CCN(Cc2ccc(C(=O)Nc3ccc(C)c(Nc4nccc(-c5cccnc5)n4)c3)cc2)CC1 [mPEG7-N′-Imatinib]

- solubility [2]: 3300 µg/mL (≈ 4.62 mM)
- Papp A→B at 120 min, 10 μM [3]: 1 ± 0.2 ×10⁻⁶ cm/s
Compound: COCCOCCOCCOCCOCCN1CCN(Cc2ccc(C(=O)Nc3ccc(C)c(Nc4nccc(-c5cccnc5)n4)c3)cc2)CC1 [mPEG5-N′-Imatinib]
